In patent US20080051466A1, “Isoalpha acid based protein kinase modulation cancer treatment” (Metaproteomics, LLC, priority 2006, published 2008):

Columns and labels:
Assay in all cases: KinaseProfiler Assay
CDK5/p25 = CDK5/p25 (Homo sapiens, UniProt Q00535); format: biochemical; conditions: read-out: CDK5/p25, % of Control
JAK3 = biological target: T1, JAK3 (Homo sapiens, UniProt P52333); format: biochemical; conditions: read-out: JAK3, % of Control
T1 sequence (P52333 1-1124): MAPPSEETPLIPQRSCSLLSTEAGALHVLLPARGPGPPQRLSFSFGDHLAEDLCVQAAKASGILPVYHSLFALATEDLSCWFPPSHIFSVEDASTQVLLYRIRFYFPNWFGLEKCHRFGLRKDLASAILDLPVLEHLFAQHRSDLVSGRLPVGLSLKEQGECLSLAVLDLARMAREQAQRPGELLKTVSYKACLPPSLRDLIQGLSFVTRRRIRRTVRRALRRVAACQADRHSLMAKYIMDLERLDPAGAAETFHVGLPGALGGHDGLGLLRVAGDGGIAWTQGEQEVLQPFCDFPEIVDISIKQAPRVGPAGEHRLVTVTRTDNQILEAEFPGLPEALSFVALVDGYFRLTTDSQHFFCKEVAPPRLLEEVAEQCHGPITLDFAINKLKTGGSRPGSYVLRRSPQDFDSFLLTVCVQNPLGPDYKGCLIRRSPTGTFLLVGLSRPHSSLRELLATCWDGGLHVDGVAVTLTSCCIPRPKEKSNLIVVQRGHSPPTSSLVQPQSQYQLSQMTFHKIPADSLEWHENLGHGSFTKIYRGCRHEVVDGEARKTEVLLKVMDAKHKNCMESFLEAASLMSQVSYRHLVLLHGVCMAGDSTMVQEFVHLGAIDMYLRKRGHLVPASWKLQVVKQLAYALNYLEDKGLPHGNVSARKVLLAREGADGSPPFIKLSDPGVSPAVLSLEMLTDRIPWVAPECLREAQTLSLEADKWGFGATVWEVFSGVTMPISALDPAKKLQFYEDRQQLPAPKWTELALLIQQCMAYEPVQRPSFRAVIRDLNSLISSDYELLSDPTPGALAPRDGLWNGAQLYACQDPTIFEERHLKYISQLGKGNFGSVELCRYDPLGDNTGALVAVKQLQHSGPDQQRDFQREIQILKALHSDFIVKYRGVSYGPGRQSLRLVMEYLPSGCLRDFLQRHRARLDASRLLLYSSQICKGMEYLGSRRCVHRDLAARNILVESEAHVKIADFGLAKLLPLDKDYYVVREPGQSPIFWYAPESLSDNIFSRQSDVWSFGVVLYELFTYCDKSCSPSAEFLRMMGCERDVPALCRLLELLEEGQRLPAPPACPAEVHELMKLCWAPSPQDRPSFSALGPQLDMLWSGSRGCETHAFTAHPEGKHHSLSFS

Bmx = Bmx (Homo sapiens, UniProt P51813); format: biochemical; conditions: 25 ug/ml; read-out: Bmx, % of Control
Pim-2 = Pim-2 (Homo sapiens, UniProt Q9P1W9); format: biochemical; conditions: read-out: Pim-2, % of Control
Chain of Pim-2 (Q9P1W9 whole entry): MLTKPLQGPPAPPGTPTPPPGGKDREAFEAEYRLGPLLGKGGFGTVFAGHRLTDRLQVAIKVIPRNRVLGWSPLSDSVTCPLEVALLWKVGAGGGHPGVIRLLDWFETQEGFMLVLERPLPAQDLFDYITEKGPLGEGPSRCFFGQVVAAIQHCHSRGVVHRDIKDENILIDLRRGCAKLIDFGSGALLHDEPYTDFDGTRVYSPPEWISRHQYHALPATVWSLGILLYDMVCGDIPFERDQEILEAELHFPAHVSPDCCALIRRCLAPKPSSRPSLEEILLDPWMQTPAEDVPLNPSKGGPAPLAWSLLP

MAPK1 = MAPK1 (Homo sapiens, UniProt P27361); format: biochemical; conditions: read-out: MAPK1, % of Control
Chain of MAPK1 (P27361 whole entry): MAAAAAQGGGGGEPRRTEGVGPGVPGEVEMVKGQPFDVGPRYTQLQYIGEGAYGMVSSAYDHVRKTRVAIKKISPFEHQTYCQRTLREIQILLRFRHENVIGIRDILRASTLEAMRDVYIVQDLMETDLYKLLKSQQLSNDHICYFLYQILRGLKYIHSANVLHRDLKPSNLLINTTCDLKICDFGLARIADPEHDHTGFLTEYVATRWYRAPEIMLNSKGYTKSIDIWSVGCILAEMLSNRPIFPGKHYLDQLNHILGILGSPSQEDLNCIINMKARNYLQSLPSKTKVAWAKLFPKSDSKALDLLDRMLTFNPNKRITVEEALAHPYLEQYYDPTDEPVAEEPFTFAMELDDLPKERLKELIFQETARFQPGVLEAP

PKA(b) = PKA(b) (Bos taurus, UniProt P00517); format: biochemical, human; conditions: read-out: PKA(b), % of Control
Tie2 = Tie2 (Homo sapiens, UniProt Q02763); format: biochemical; conditions: 50 ug/ml; read-out: Tie2, % of Control
MAPKAP-K3 = MAPKAP-K3 (Homo sapiens, UniProt Q16644); format: biochemical; conditions: read-out: MAPKAP-K3, % of Control
Chain of MAPKAP-K3 (Q16644 whole entry): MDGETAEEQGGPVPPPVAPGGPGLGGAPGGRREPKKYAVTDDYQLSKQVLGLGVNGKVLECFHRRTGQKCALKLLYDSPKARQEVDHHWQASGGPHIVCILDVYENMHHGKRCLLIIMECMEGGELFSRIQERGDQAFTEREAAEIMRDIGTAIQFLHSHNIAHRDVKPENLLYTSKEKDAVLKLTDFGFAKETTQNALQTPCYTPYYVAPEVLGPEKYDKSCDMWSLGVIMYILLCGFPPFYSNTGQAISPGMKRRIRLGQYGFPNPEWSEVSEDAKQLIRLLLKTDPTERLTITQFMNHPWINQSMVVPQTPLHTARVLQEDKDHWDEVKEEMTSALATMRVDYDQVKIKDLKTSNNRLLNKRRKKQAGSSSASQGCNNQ

CDK1/cyclinB = CDK1/cyclinB (Homo sapiens, UniProt P06493); format: biochemical; conditions: read-out: CDK1/cyclinB, % of Control
Chain of CDK1/cyclinB (P06493 whole entry): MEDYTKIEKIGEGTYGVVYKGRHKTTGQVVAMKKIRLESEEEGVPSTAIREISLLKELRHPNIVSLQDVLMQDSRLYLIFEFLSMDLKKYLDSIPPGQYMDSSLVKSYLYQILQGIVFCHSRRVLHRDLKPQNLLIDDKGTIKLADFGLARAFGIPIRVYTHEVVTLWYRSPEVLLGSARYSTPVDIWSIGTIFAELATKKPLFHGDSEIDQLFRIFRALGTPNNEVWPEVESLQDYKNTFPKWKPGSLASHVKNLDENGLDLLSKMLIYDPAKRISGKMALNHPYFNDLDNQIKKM
Chain of CDK1/cyclinB (P14635 whole entry partner): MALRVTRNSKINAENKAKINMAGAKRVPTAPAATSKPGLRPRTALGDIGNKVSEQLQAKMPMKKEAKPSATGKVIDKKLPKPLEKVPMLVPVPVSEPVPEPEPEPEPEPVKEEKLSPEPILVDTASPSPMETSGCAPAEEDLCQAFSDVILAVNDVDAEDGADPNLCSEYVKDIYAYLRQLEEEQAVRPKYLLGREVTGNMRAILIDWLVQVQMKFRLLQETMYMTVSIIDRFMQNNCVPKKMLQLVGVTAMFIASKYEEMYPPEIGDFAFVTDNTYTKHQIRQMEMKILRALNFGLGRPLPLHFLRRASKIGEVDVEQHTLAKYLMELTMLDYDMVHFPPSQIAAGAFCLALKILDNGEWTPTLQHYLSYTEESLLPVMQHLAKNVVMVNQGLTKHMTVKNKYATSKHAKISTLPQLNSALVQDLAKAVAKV

PAK5 = PAK5 (Homo sapiens, UniProt Q9P286); format: biochemical; conditions: read-out: PAK5, % of Control
Chain of PAK5 (Q9P286 whole entry): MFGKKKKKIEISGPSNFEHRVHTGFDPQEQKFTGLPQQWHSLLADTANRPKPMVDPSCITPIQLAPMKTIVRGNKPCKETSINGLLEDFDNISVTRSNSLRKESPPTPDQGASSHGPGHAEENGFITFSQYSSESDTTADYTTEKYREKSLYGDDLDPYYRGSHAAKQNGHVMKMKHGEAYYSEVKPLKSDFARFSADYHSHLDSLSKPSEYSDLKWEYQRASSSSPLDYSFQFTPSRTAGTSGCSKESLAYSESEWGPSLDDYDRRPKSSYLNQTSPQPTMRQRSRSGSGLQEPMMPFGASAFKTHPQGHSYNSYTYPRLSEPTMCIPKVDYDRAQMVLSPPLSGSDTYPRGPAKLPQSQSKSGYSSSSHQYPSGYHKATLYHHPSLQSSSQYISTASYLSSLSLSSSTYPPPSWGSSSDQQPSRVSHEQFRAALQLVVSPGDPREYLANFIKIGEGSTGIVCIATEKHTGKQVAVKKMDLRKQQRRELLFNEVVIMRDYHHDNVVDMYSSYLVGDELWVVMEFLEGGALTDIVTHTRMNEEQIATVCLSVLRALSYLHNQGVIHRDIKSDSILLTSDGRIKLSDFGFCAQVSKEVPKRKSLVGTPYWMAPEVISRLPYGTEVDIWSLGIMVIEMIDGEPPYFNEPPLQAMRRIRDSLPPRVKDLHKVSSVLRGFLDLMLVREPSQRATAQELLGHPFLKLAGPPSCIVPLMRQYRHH

CK1γ2 = CK1γ2 (Homo sapiens, UniProt P78368); format: biochemical; conditions: read-out: CK1γ2, % of Control
Chain of CK1γ2 (P78368 whole entry): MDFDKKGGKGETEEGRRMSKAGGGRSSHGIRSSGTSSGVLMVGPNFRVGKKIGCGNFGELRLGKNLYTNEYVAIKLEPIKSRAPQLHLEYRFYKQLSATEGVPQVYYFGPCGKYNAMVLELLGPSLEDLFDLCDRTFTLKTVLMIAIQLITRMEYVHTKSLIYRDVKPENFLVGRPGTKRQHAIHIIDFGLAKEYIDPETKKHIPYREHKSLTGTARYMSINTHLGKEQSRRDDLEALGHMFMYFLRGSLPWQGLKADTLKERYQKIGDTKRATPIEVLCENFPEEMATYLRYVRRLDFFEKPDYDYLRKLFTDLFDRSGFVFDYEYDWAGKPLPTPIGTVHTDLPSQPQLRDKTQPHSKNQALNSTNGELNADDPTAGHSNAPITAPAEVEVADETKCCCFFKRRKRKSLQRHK

EphA2 = EphA2 (Homo sapiens, UniProt P29317); format: biochemical; conditions: read-out: EphA2, % of Control
Chain of EphA2 (P29317 24-976): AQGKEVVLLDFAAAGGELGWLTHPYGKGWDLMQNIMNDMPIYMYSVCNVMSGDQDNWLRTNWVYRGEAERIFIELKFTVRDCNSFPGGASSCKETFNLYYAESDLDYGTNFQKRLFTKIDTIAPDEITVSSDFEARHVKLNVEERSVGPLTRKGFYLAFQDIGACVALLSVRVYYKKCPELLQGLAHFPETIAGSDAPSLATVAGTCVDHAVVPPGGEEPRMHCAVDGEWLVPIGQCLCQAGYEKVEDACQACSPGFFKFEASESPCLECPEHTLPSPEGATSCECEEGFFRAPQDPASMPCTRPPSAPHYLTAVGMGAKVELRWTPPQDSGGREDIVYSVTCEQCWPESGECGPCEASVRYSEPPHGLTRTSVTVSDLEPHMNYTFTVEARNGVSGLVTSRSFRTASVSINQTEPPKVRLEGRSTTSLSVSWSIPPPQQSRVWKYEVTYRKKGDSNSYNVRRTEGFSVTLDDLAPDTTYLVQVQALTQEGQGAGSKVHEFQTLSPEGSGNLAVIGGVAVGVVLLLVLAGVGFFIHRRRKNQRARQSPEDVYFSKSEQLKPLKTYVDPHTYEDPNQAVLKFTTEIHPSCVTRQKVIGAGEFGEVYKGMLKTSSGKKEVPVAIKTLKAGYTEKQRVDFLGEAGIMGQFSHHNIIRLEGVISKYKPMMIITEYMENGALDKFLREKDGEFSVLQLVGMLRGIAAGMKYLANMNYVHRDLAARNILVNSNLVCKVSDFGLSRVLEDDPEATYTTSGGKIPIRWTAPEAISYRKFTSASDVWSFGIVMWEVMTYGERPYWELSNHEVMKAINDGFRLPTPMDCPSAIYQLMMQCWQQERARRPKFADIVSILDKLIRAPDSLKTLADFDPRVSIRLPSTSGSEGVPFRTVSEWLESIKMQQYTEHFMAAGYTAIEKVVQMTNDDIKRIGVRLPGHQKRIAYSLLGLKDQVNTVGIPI

GSK3α = GSK3α (Homo sapiens, UniProt P49840); format: biochemical; conditions: read-out: GSK3α, % of Control
Chain of GSK3α (P49840 whole entry): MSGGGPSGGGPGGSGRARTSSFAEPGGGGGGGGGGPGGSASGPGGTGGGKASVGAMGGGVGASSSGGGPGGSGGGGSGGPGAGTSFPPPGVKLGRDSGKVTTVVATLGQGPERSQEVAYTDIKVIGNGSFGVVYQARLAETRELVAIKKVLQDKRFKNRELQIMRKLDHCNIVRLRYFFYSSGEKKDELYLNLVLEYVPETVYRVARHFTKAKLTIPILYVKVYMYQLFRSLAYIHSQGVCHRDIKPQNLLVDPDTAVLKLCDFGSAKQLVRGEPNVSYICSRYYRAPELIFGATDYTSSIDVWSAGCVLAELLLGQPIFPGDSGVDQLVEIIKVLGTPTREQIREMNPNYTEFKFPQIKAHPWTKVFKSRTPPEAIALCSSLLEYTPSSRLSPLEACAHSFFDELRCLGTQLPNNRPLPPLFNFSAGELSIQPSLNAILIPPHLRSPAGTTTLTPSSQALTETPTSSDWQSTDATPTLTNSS

CDK2/cyclinA = CDK2/cyclinA (Homo sapiens, UniProt P24941); format: biochemical; conditions: read-out: CDK2/cyclinA, % of Control
PKA = PKA (Homo sapiens, UniProt P17612); format: biochemical; conditions: read-out: PKA, % of Control

Chain of CDK5/p25 (Q00535 whole entry): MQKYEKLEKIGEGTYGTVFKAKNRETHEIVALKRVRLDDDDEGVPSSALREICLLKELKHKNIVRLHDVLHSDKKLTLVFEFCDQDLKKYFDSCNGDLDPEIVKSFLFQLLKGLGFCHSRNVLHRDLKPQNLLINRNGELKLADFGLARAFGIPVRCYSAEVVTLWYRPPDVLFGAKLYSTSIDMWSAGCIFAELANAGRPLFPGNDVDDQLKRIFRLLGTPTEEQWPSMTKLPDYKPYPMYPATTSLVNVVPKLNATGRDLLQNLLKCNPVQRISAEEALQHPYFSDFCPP
Chain of CDK5/p25 (Q15078 99-307 partner limits assumed): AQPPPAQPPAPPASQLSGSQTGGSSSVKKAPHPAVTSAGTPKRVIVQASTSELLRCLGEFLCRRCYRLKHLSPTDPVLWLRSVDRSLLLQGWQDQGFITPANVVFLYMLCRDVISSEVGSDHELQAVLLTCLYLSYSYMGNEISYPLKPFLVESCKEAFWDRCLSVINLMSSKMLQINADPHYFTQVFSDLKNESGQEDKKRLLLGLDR

`COc1cc(O)c(CC=C(C)C)c(O)c1C(=O)/C=C/c1ccc(O)cc1` [Xanthohumol, xanthohumol] gave a remaining activity at 25 µg/mL (CDK5/p25; 25 ug/ml) of 24%, a remaining activity at 50 µg/mL (CDK5/p25; 50 ug/ml) of 87% and a remaining activity at 1 µg/mL (JAK3; 1 ug/ml) of 104%. It also gave a remaining activity at 5 µg/mL (JAK3; 5 ug/ml) of 84%, a remaining activity at 25 µg/mL (JAK3; 25 ug/ml) of 17% and a remaining activity at 50 µg/mL (JAK3; 50 ug/ml) of 5%. It also gave a remaining activity at 25 µg/mL (Bmx) of 22%, a remaining activity at 1 µg/mL (Pim-2; 1 ug/ml) of 104% and a remaining activity at 5 µg/mL (Pim-2; 5 ug/ml) of 48%. The remaining activity at 25 µg/mL (Pim-2; 25 ug/ml) was 14%, the remaining activity at 50 µg/mL (Pim-2; 50 ug/ml) was 6% and the remaining activity at 5 µg/mL (MAPK1; 5 ug/ml) was 64%. The remaining activity at 25 µg/mL (MAPK1; 25 ug/ml) was 19%, the remaining activity at 50 µg/mL (MAPK1; 50 ug/ml) was 17% and the remaining activity at 1 µg/mL (PKA(b); 1 ug/ml) was 137%. It also gave a remaining activity at 25 µg/mL (PKA(b); 25 ug/ml) of 33%, a remaining activity at 50 µg/mL (Tie2) of 35% and a remaining activity at 25 µg/mL (MAPKAP-K3; 25 ug/ml) of 17%. The remaining activity at 50 µg/mL (MAPKAP-K3; 50 ug/ml) was 7%, the remaining activity at 1 µg/mL (CDK1/cyclinB; 1 ug/ml) was 118% and the remaining activity at 5 µg/mL (CDK1/cyclinB; 5 ug/ml) was 103%. It also gave a remaining activity at 25 µg/mL (CDK1/cyclinB; 25 ug/ml) of 46%, a remaining activity at 50 µg/mL (CDK1/cyclinB; 50 ug/ml) of 18% and a remaining activity at 1 µg/mL (PAK5; 1 ug/ml) of 106%. For the same molecule, the remaining activity at 5 µg/mL (PAK5; 5 ug/ml) was 99%, the remaining activity at 25 µg/mL (PAK5; 25 ug/ml) was 42% and the remaining activity at 50 µg/mL (PAK5; 50 ug/ml) was 5%. The remaining activity at 1 µg/mL (CK1γ2; 1 ug/ml) was 92%, the remaining activity at 5 µg/mL (CK1γ2; 5 ug/ml) was 48% and the remaining activity at 25 µg/mL (CK1γ2; 25 ug/ml) was 30%. For the same molecule, the remaining activity at 50 µg/mL (CK1γ2; 50 ug/ml) was 12%, the remaining activity at 1 µg/mL (EphA2; 1 ug/ml) was 124% and the remaining activity at 50 µg/mL (EphA2; 50 ug/ml) was 52%. For the same molecule, the remaining activity at 1 µg/mL (GSK3α; 1 ug/ml) was 102%, the remaining activity at 25 µg/mL (GSK3α; 25 ug/ml) was 11% and the remaining activity at 50 µg/mL (GSK3α; 50 ug/ml) was -4%. The remaining activity at 1 µg/mL (CDK2/cyclinA; 1 ug/ml) was 107%, the remaining activity at 5 µg/mL (CDK2/cyclinA; 5 ug/ml) was 96% and the remaining activity at 25 µg/mL (CDK2/cyclinA; 25 ug/ml) was 57%. For the same molecule, the remaining activity at 50 µg/mL (CDK2/cyclinA; 50 ug/ml) was 6%, the remaining activity at 1 µg/mL (PKA; 1 ug/ml) was 105% and the remaining activity at 5 µg/mL (PKA; 5 ug/ml) was 109%. It also gave a remaining activity at 25 µg/mL (PKA; 25 ug/ml) of 98% and a remaining activity at 50 µg/mL (PKA; 50 ug/ml) of 21%.
